From patent publication US11568956B2, “Methods for identifying inhibitors of amyloid protein aggregation” (Treventis Corporation, priority 2008, dated 2023)
pIC50: −log10 of the molar value. Counter-ions that a name gives are not always drawn. Like-named read-outs stand apart in the source and are kept apart here.

Assays:
Aβ 1-40 = target: T1, Aβ 1-40 (Homo sapiens, UniProt P05067); test: ThT aggregation assay of Aβ 1-40; type: biochemical
T1 construct: ThT aggregation assays of Aβ 1-40 and alpha synuclein
Protocol: The anti-amyloid activity of these compounds was evaluated by ThT aggregation assays of Aβ 1-40 and alpha synuclein, as set forth below. The column “A-Syn” below is a functional ThT aggregation assay of alpha synuclein.

Aβ = Aβ (Homo sapiens, UniProt P05067); details: read-out: Expt (IC50), cited from earlier work; for IC50: unit not in the table, μM, Masuda test set
Aβ, sequence (P05067 672-711 limits assumed): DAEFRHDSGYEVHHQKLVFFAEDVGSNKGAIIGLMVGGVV

T1 sequence (P05067 672-711 limits assumed): as above

Compound	IC50 (Aβ)	other results
CC1=NNC(=O)C1CC(=O)N/N=C/c1cccc(OCc2ccccc2)c1 (centres unmarked)	–	IC50 (Aβ 1-40): > 20 µM
O=C(CNC(=O)c1ccccc1)N/N=C/c1c[nH]nc1-c1ccccc1	–	IC50 (Aβ 1-40): > 20 µM
CC(C)(O)C#Cc1ccc(C(=O)N2CCN(c3ncccn3)CC2)cc1	–	IC50 (Aβ 1-40): > 20 µM
CCOC(=O)c1c(NC(=O)c2cccc([N+](=O)[O-])c2C)sc2c1CCC2	–	IC50 (Aβ 1-40): > 20 µM
Cc1ccc(N(C)C(=O)C2CC(O)CN2C(=O)OCC(C)C)cc1C (centres unmarked)	–	IC50 (Aβ 1-40): > 20 µM
Cc1sc(/C=N/NC(=O)c2cccc([N+](=O)[O-])c2)cc1[N+](=O)[O-]	–	IC50 (Aβ 1-40): > 20 µM
O=[N+]([O-])c1ccc(N2CCCCC2)cc1Nc1ccccc1	–	Aβ - ThT (IC50/μM) (Aβ 1-40): INACTIVE
O=C(c1ccc(O)cc1O)c1ccc(O)cc1O [2,2′,4,4′-tetrahydroxybenzaphenone]	> 40 µM	–
O=C(c1ccccc1O)c1ccccc1O [2,2′-dihydroxybenzophenone]	> 40 µM	–
O=C(c1ccc(O)cc1O)c1ccc(O)c(O)c1O [2,3,4,2′,4′-pentahydroxybenzophenone]	2.8 µM	–
O=C(c1ccccc1)c1ccc(O)c(O)c1O [2,3,4-trihydroxybenzophenone]	3.1 µM	–
Cc1ccc2nc(-c3ccc(N)cc3)sc2c1 [2-(4-aminophenyl)-6-methylbenzothiazole]	2 µM	–
Cc1ccc2nc(-c3ccc(N(C)C)cc3)sc2c1 [2-[4-(dimethylamino)phenyl]-6-methylbenzothiazole]	2 µM	–
CCCN1C(=CC=CC=Cc2sc3ccccc3[n+]2CCC)Sc2ccccc21 [3,3′-dipropyl thiodicarbocyanine iodine]	–	pIC50 (Aβ): 6.52
O=C(c1ccc(O)cc1)c1ccc(O)cc1 [4,4′-dihydroxybenzophenone]	> 40 µM	–
O=C1NC(=O)c2cc(Nc3ccccc3)c(Nc3ccccc3)cc21 [4,5-dianilinophthalimide]	2.9 µM	–
O=c1cc(-c2ccc(O)cc2)oc2cc(O)cc(O)c12 [Apigenin]	> 40 µM	–
O=C(O)c1cc(/C=C/c2ccc(/C=C/c3ccc(O)c(C(=O)O)c3)c(Br)c2)ccc1O [BSB]	6.4 µM	–
Nc1c(/N=N/c2ccc(-c3ccc(/N=N/c4cc(S(=O)(=O)O)c5ccccc5c4N)cc3)cc2)cc(S(=O)(=O)O)c2ccccc12 [Congo red]	0.9 µM	–
O=C(O)c1cc(/C=C/c2ccc(/C=C/c3ccc(O)c(C(=O)O)c3)c(F)c2)ccc1O [FSB]	1.9 µM	–
O=S(=O)(O)c1ccc2c(N=Nc3ccc(N=Nc4ccccc4)cc3)c(O)c(S(=O)(=O)O)cc2c1 [Ponceau SS]	1.2 µM	–
CC(=O)c1ccc2c(c1)N(CCCN(C)C)c1ccccc1S2 [acetopromazine maleate salt]	> 40 µM	–
C[C@@H]1[C@H](O)[C@@H](C)/C=C/C=C/C=C/C=C/C=C/C=C/C=C/[C@H](O[C@@H]2O[C@H](C)[C@@H](O)[C@H](N)[C@@H]2O)C[C@@H]2O[C@](O)(C[C@@H](O)C[C@@H](O)[C@H](O)CC[C@@H](O)C[C@@H](O)CC(=O)O[C@H]1C)C[C@H](O)[C@H]2C(=O)O [amphotericin B]	2.2 µM	–
C[C@H]1[C@H](C)CC[C@]2(C(=O)O)CC[C@]3(C)C(=CC[C@@H]4[C@@]5(C)C[C@@H](O)[C@H](O)[C@@](C)(CO)[C@@H]5CC[C@]43C)[C@H]12 [asiatic acid]	> 40 µM	–
CN(C)c1ccc2nc3ccc(N)cc3[s+]c2c1 [azure A]	0.4 µM	–

Compound	IC50 (Aβ)	other results
CCN(CCO)c1ccc(/N=N/c2sc3cc(OC)ccc3[n+]2C)cc1 [basic blue 41]	1.4 µM	–
Nc1ccc(N=Nc2ccc(-c3ccc(N=Nc4c(S(=O)(=O)O)cc5cc(S(=O)(=O)O)c(N=Nc6ccccc6)c(O)c5c4N)cc3)cc2)c(N)c1 [chlorazol black E]	0.3 µM	–
O=C(/C=C/c1ccc(O)c(O)c1)O[C@@H]1C[C@](O)(C(=O)O)C[C@@H](O)[C@H]1O [chlorogenic acid]	> 40 µM	–
CN(C)CCCN1c2ccccc2Sc2ccc(Cl)cc21 [chlorpromazine hydrochloride]	> 40 µM	–
Oc1cc(O)c2cc(O)c(-c3ccc(O)c(O)c3)[o+]c2c1 [cyanidin]	4 µM	–
O=c1c(-c2ccc(O)cc2)coc2cc(O)ccc12 [daidzein]	> 40 µM	–
COc1cccc2c1C(=O)c1c(O)c3c(c(O)c1C2=O)C[C@@](O)(C(C)=O)C[C@@H]3O[C@H]1C[C@H](N)[C@H](O)[C@H](C)O1 [daunorubicin hydrochloride]	1.4 µM	–
Oc1cc(O)c2cc(O)c(-c3cc(O)c(O)c(O)c3)[o+]c2c1 [delphinidin]	3 µM	–
NCCc1ccc(O)c(O)c1 [dopamine chloride]	–	pIC50 (Aβ): 4.54
O=C(O[C@@H]1Cc2c(O)cc(O)cc2O[C@@H]1c1ccc(O)c(O)c1)c1cc(O)c(O)c(O)c1 [epicatechin 3-gallate]	3 µM	–
Oc1cc(O)c2c(c1)O[C@H](c1ccc(O)c(O)c1)[C@H](O)C2 [epicatechin]	> 40 µM	–
O=C(O[C@@H]1Cc2c(O)cc(O)cc2O[C@@H]1c1cc(O)c(O)c(O)c1)c1cc(O)c(O)c(O)c1 [epigallocatechin gallate]	2 µM	–
Oc1cc(O)c2c(c1)O[C@H](c1cc(O)c(O)c(O)c1)[C@H](O)C2 [epigallocatechin]	7 µM	–
O=C(c1cc(O)c(O)c(O)c1)c1ccc(O)c(O)c1O [exifone]	0.7 µM	–
CCCCC[C@@H](O)[C@H]1C(=O)O[C@H](C)[C@@H](O)/C=C/C=C/C=C/C=C/C=C(\C)[C@@H](O)C[C@H](O)C[C@H](O)C[C@H](O)C[C@H](O)C[C@H](O)C[C@@H]1O [filipin III]	14.6 µM	–
Oc1cc(O)c2c(c1)O[C@H](c1cc(O)c(O)c(O)c1)[C@@H](O)C2 [gallocatechin]	7 µM	–
CCCCC[C@H](O)CC(=O)CCc1ccc(O)c(OC)c1 [gingerol]	25 µM	–
C[C@@H]1C(=O)O[C@H]2C[C@@]34[C@H]5C[C@@H](C(C)(C)C)[C@]36[C@@H](OC(=O)[C@@H]6O)O[C@@]4(C(=O)O5)[C@]21O [ginkgolide A]	> 40 µM	–
CC1C(=O)OC2C(O)C34C5CC(C(C)(C)C)C36C(OC(=O)C6O)OC4(C(=O)O5)C12O (centres unmarked) [ginkgolide B]	11 µM	–
O=c1c(O)c(-c2ccc(O)c(O)c2)oc2c(O)c(O)cc(O)c12 [gossypetin]	1.3 µM	–
O=c1cc(-c2ccc(Oc3c(O)cc4oc(-c5ccc(O)cc5)cc(=O)c4c3O)cc2)oc2cc(O)cc(O)c12 [hinokiflavone]	5 µM	–
Cc1cc(O)c2c(=O)c3c(O)cc(O)c4c5c(O)cc(O)c6c(=O)c7c(O)cc(C)c8c1c2c(c34)c(c78)c65 [hypericin]	0.9 µM	–
O=c1c(O)c(-c2ccc(O)cc2)oc2cc(O)cc(O)c12 [kaempferol]	8 µM	–
O=c1cc2oc3cc(O)c(-c4ccc(O)cc4O)cc3nc-2cc1-c1ccc(O)cc1O [lacmoid]	1.4 µM	–
C[C@H](CCC(=O)NCCS(=O)(=O)O)[C@H]1CC[C@H]2[C@@H]3[C@H](O)C[C@@H]4C[C@H](O)CC[C@]4(C)[C@H]3CC[C@]12C [laurochenodeoxycholic acid]	> 40 µM	–

Compound	IC50 (Aβ)	other results
O=c1cc(-c2ccc(O)c(O)c2)oc2cc(O)cc(O)c12 [luteolin]	3 µM	–
C=CCc1ccc(O)c(-c2cc(CC=C)ccc2O)c1 [magnolol]	> 40 µM	–
CN(C)c1ccc(N=Nc2ccccc2)cc1 [methyl yellow]	1.5 µM	–
CN(C)c1ccc2nc3ccc(=[N+](C)C)cc-3sc2c1 [methylene blue]	2.3 µM	–
O=C1C[C@@H](c2ccc(O)cc2)Oc2cc(O)cc(O)c21 [naringenin]	25 µM	–
OCCN1CCN(CCCN2c3ccccc3Sc3ccc(Cl)cc32)CC1 [perphenazine]	> 40 µM	–
Oc1cc(O)c2c(c1)O[C@H](c1ccc(O)c(O)c1)[C@H](O)[C@H]2c1c(O)cc(O)c2c1O[C@H](c1ccc(O)c(O)c1)[C@@H](O)C2 [procyanidin B1]	14 µM	–
Oc1cc(O)c2c(c1)O[C@H](c1ccc(O)c(O)c1)[C@H](O)[C@H]2c1c(O)cc(O)c2c1O[C@H](c1ccc(O)c(O)c1)[C@H](O)C2 [procyanidin B2]	> 40 µM	–
CN(C)CCCN1c2ccccc2Sc2ccccc21 [promazine hydrochloride]	> 40 µM	–
CCC(=O)c1ccc2c(c1)N(CCCN(C)C)c1ccccc1S2 [propionylpromazine hydrochloride]	> 40 µM	–
O=c1c(O)c(-c2ccc(O)c(O)c2)oc2cc(O)cc(O)c12 [quercetin]	5 µM	–
CCN(CC)CCCC(C)Nc1c2ccc(Cl)cc2nc2ccc(OC)cc12 (centres unmarked) [quinacrine]	8.4 µM	–
CO[C@H]1/C=C/O[C@@]2(C)Oc3c(C)c(O)c4c(O)c(c(/C=N/N5CCN(C)CC5)c(O)c4c3C2=O)NC(=O)/C(C)=C\C=C\[C@H](C)[C@H](O)[C@@H](C)[C@@H](O)[C@@H](C)[C@H](OC(C)=O)[C@@H]1C [rifampicin]	4.9 µM	–
O=C(/C=C/c1ccc(O)c(O)c1)O[C@H](Cc1ccc(O)c(O)c1)C(=O)O [rosmarinic acid]	12 µM	–
C[C@@H]1O[C@@H](OC[C@H]2O[C@@H](Oc3c(-c4ccc(O)c(O)c4)oc4cc(O)cc(O)c4c3=O)[C@H](O)[C@@H](O)[C@@H]2O)[C@H](O)[C@H](O)[C@H]1O [rutin]	32 µM	–
c1cc2c(cc1[C@H]1OC[C@H]3[C@@H]1CO[C@@H]3c1ccc3c(c1)OCO3)OCO2 [sesamin]	> 40 µM	–
C[C@H](CCC(=O)NCCS(=O)(=O)O)[C@H]1CC[C@H]2[C@@H]3CC[C@@H]4C[C@H](O)CC[C@]4(C)[C@H]3CC[C@]12C [taurolithocholic acid]	> 40 µM	–
C[C@H](CCC(=O)NCCS(=O)(=O)O)[C@H]1CC[C@H]2[C@@H]3CC[C@@H]4C[C@H](OS(=O)(=O)O)CC[C@]4(C)[C@H]3CC[C@]12C [taurolithocholic aicd 3-sulfate]	> 40 µM	–
C[C@H](CCC(=O)NCCS(=O)(=O)O)[C@H]1CC[C@H]2[C@@H]3[C@@H](O)C[C@@H]4C[C@H](O)CC[C@]4(C)[C@H]3CC[C@]12C [tauroursodeoxycholic acid]	> 40 µM	–
ginkgolide C	> 40 µM	–
phthalocyanine tetrasulfonate	3.2 µM	–
taurohydroxycholic acid	> 40 µM	–
theaflavone	2 µM	–
tocopherol	> 40 µM	–
